The source of these data is patent US20030100769A1, “Cyclic amidine compounds” (priority 2000, published 2003).

In the assay the target is T1, α4β2 subtype of nicotinic acetylcholine receptors (Rattus norvegicus, UniProt P09483+P12390).
T1 construct: examined using rat brain membrane obtained from whole homogenized brain; from tissue; host or cells: rat whole brain membranes (Fischer-344 male rats)
Put plainly: Binding assay at α4β2 subtype of nicotinic acetylcholine receptors ([3H]-cytisine, rat brain membrane). An excerpt: The methods for evaluating the binding capabilities of the compounds at nicotinic acetylcholine receptors are different by subtypes of receptors. The binding capabilities of the compounds at α4β2 nicotinic acetylcholine receptors are examined using rat brain membrane obtained from whole homogenized brain, and determining the inhibiting rate of the compounds against [^3H]-cytisine binding to said brain membrane. Furthermore, the binding capabilities of the compounds at α1β1γδ nicotinic acetylcholine receptors are examined using homogenized rat muscle, and determining the inhibiting rate of the compounds against [^3H]-α-bungarotoxin binding to said muscle homogenate.
Binding Assays at α4β2 Subtype of Nicotinic Acetylcholine Receptors
(1) Preparation of Rat Brain Membrane Containing α4β2 Subtype of Nicotinic Acetylcholine Receptors
Rats were housed in the breeding cage controlled of the room temperature at 23±1° C., and the humidity of 55±5% for 1 to 4 weeks. Rats (3 to 4 rats per a cage) were housed with lights on for 12 hours daily (from 7:00 to 19:00), and allowed free access to food and water.
Preparation of rat brain membrane containing α4β2 subtype of nicotinic acetylcholine receptors was performed as follow. That is, rat brains were isolated just after sacrificed by decapitation, washed with ice-cooled saline solution and then frozen at −80° C. with liquid nitrogen and stored till using. After thawing the frozen brain, the brain was homogenized in 10 volumes of ice-cooled buffer solution (50 mM of Tris-HCl, 120 mM of NaCl, 5 mM of KCl, 1 mM of MgCl2, 2 mM of CaCl2; pH 7.4; 4° C.) using homogenizer (HG30, Hitachi Kohki Ltd.) for 30 seconds, and the homogenate were centrifuged under 1,000×G for 10 minutes at 4° C. The resulting supernatant was separated and the pellet was homogenized again with half volume of aforementioned prior buffer solution and centrifuged under the same conditions. Combined supernatant was further centrifuged under 40,000×G for 20 minutes at 4° C. The pellet was suspended in buffer solution and used for binding assays at receptors.
(2) Experiments of α4β2 Subtype of Nicotinic Acetylcholine Receptors Binding
Suspensions of membrane pellets containing 400-600 μg of protein were added to test tubes containing test compounds and [^3H]-cytisine (2 nM) in a final volume of 200 μl and incubated for 75 minutes in ice-cooled bath. The samples were isolated by vacuum filtration onto Whatman GF/B filters, which were prerinsed with 0.5% polyethylenimine just prior to sample filtration, using Brandel multi manifold cell harvester. The filters were rapidly washed with buffer solution (3×1 ml). The filters were counted in 3 ml of clearsol I (Nacalai Tesque Inc.).
The analyses of the experimental results were conducted by using the Accufit Competition Program (Beckman Ltd.).

T1 sequence (P09483 31-630): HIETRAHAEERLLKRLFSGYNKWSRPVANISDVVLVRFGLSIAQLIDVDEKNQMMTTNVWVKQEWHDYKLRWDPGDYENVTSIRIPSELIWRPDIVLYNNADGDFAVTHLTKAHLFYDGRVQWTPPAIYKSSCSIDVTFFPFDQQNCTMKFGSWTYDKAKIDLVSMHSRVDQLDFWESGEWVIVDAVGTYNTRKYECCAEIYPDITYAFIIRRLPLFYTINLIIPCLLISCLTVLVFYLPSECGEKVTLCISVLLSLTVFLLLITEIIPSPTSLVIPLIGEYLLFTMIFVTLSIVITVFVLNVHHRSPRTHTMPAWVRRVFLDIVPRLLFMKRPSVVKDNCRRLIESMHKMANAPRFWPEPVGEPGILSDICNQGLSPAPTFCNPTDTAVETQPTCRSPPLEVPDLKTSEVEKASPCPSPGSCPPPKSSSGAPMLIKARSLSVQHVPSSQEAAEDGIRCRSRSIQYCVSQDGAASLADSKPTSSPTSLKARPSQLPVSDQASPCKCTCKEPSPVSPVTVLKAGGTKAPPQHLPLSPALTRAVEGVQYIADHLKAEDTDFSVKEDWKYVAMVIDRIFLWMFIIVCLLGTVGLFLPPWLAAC
T1 sequence (P12390 25-500): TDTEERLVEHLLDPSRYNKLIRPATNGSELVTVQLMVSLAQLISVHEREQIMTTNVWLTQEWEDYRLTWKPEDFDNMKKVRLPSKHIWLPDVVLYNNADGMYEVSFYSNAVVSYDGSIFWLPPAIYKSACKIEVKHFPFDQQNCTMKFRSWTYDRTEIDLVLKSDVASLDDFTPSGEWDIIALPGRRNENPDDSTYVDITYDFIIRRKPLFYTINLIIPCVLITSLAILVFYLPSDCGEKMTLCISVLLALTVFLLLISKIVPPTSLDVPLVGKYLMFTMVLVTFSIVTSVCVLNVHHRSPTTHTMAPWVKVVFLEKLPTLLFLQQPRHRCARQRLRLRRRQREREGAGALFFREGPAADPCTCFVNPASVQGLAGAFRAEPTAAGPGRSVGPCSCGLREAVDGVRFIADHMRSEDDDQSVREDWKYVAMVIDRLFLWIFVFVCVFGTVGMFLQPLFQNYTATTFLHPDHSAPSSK

The Ki is the dissociation constant of the complex between target and ligand, obtained from inhibition or displacement. Higher therefore signals a looser hold on the target. `Clc1ccc(C2=NCCCN2)cn1` [Compound 2, 2-(6-chloro-3-pyridyl)-1,4,5,6-tetrahydropyrimidine] came in with an inhibitory constant (Ki) of 13 nM.

Consider `CN1CCN=C1c1ccc(Cl)nc1` [Compound 3, 2-(6-chloro-3-pyridyl)-1-methyl-2-imidazoline], for which the affinity, expressed as Ki, was 45 nM.

Compound `Clc1ncc(C2=NCCCN2)s1` [Compound 22, 2-(2-chloro-5-thiazolyl)-1,4,5,6-tetrahydropyrimidine] registered a Ki of 429 nM.
